In US10787452B2 (Vertex Pharmaceuticals Incorporated, priority 2012, dated 2020):

System: HCT116 colorectal cancer cells
Experiment: Cisplatin sensitization assay (96 h cell viability MTS);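 further: compound concentration needed to lower the Cisplatin-alone IC50 by a set fold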
Format: cell-based
Details: 96 h MTS, compound plus Cisplatin
Summary of the method: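 Viability is measured with MTS reagent, added after 96 h and developed for 1 h at 37° C. Beforehand, cells receive compound and cisplatin simultaneously in a concentration matrix of 2-fold serial dilutions starting at 10 μM final.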

| SMILES | Cisplatin Sensitization Assay |
| --- | --- |
| CN1CCC(C(=O)N2CCN(c3c(F)cncc3NC(=O)c3c(N)nn4cc(F)cnc34)CC2)C1 (stereo not drawn) [I-N-156, 2-amino-6-fluoro-N-(5-fluoro-4-(4-(1-methylpyrrolidine-3-carbonyl)piperazin-1-yl)pyridin-3-yl)pyrazolo[1,5-a]pyrimidine-3-carboxamide] | +++ (Compounds with a Cisplatin sensitization value of <0.02 μM are marked with “+++.”) |
| COc1cc(Cl)ncc1NC(=O)c1c(N)nn2cc(CC#N)cnc12 [I-O-27, 2-amino-N-(6-chloro-4-methoxypyridin-3-yl)-6-(cyanomethyl)pyrazolo[1,5-a]pyrimidine-3-carboxamide] | ++ (Compounds with a Cisplatin sensitization value >0.02 μM but <0.2 μM are marked with “++.”) |
| CCn1cncc1-c1ccncc1NC(=O)c1c(N)nn2cc(F)cnc12 [I-C-80, 2-amino-N-(4-(1-ethyl-1H-imidazol-5-yl)pyridin-3-yl)-6-fluoropyrazolo[1,5-a]pyrimidine-3-carboxamide] | +++ (Compounds with a Cisplatin sensitization value of <0.02 μM are marked with “+++.”) |
| CNC1CN(C(=O)C2CCN(c3c(F)cncc3NC(=O)c3c(N)nn4cc(F)cnc34)CC2)C1 [I-G-34, 2-amino-6-fluoro-N-(5-fluoro-4-(4-(3-(methylamino)azetidine-1-carbonyl)piperidin-1-yl)pyridin-3-yl)pyrazolo[1,5-a]pyrimidine-3-carboxamide] | +++ (Compounds with a Cisplatin sensitization value of <0.02 μM are marked with “+++.”) |
| CN1CCN(CC2CCN(c3c(F)cncc3NC(=O)c3c(N)nn4cc(F)cnc34)CC2)CC1 [I-N-150, 2-amino-6-fluoro-N-(5-fluoro-4-(4-((4-methylpiperazin-1-yl)methyl)piperidin-1-yl)pyridin-3-yl)pyrazolo[1,5-a]pyrimidine-3-carboxamide] | +++ (Compounds with a Cisplatin sensitization value of <0.02 μM are marked with “+++.”) |
| N#CCc1cnc2c(C(=O)Nc3cnccc3-c3ccccc3)c(N)nn2c1 [I-C-6, 2-amino-6-(cyanomethyl)-N-(4-phenylpyridin-3-yl)pyrazolo[1,5-a]pyrimidine-3-carboxamide] | +++ (Compounds with a Cisplatin sensitization value of <0.02 μM are marked with “+++.”) |
| Nc1nn2cc(F)cnc2c1C(=O)Nc1cncc(Cl)c1N1CCNCC1 [I-N-126, 2-amino-N-(5-chloro-4-(piperazin-1-yl)pyridin-3-yl)-6-fluoropyrazolo[1,5-a]pyrimidine-3-carboxamide] | +++ (Compounds with a Cisplatin sensitization value of <0.02 μM are marked with “+++.”) |
| CC(C)(C)Oc1ccncc1NC(=O)c1c(N)nn2cc(F)cnc12 [I-O-88, 2-amino-N-(4-(tert-butoxy)pyridin-3-yl)-6-fluoropyrazolo[1,5-a]pyrimidine-3-carboxamide] | +++ (Compounds with a Cisplatin sensitization value of <0.02 μM are marked with “+++.”) |
| Nc1nn2cc(Cl)cnc2c1C(=O)Nc1cnccc1C1CCN(C2COC2)CC1 [I-C-11, 2-amino-6-chloro-N-(4-(1-(oxetan-3-yl)piperidin-4-yl)pyridin-3-yl)pyrazolo[1,5-a]pyrimidine-3-carboxamide] | +++ (Compounds with a Cisplatin sensitization value of <0.02 μM are marked with “+++.”) |
| CN1CCC(NC(=O)C2CCN(c3c(F)cncc3NC(=O)c3c(N)nn4cc(F)cnc34)CC2)C1 (stereo not drawn) [I-G-24, 2-amino-6-fluoro-N-(5-fluoro-4-(4-((1-methylpyrrolidin-3-yl)carbamoyl)piperidin-1-yl)pyridin-3-yl)pyrazolo[1,5-a]pyrimidine-3-carboxamide] | +++ (Compounds with a Cisplatin sensitization value of <0.02 μM are marked with “+++.”) |
| CN1CCN(c2ccc(-c3ccncc3NC(=O)c3c(N)nn4cc(F)cnc34)cn2)CC1 [I-C-21, 2-amino-6-fluoro-N-(6-(4-methylpiperazin-1-yl)-[3,4′-bipyridin]-3′-yl)pyrazolo[1,5-a]pyrimidine-3-carboxamide] | +++ (Compounds with a Cisplatin sensitization value of <0.02 μM are marked with “+++.”) |
| CN(C)Cc1ccc(Oc2ccncc2NC(=O)c2c(N)nn3cc(F)cnc23)cn1 [I-O-3, 2-amino-N-(4-((6-((dimethylamino)methyl)pyridin-3-yl)oxy)pyridin-3-yl)-6-fluoropyrazolo[1,5-a]pyrimidine-3-carboxamide] | ++ (Compounds with a Cisplatin sensitization value >0.02 μM but <0.2 μM are marked with “++.”) |
| Nc1nn2cc(F)cnc2c1C(=O)Nc1cnccc1-n1ccnc1 [I-N-7, N-(4-(1H-imidazol-1-yl)pyridin-3-yl)-2-amino-6-fluoropyrazolo[1,5-a]pyrimidine-3-carboxamide] | ++ (Compounds with a Cisplatin sensitization value >0.02 μM but <0.2 μM are marked with “++.”) |
| CN1CCC(c2ccncc2NC(=O)c2c(N)nn3cc(F)cnc23)CC1 [I-C-1, 2-amino-6-fluoro-N-(4-(1-methylpiperidin-4-yl)pyridin-3-yl)pyrazolo[1,5-a]pyrimidine-3-carboxamide] | ++ (Compounds with a Cisplatin sensitization value >0.02 μM but <0.2 μM are marked with “++.”) |
| CN1CCN(c2c(F)cncc2NC(=O)c2c(N)nn3cc(C(C)(C)C#N)cnc23)CC1 [I-N-138, 2-amino-6-(2-cyanopropan-2-yl)-N-(5-fluoro-4-(4-methylpiperazin-1-yl)pyridin-3-yl)pyrazolo[1,5-a]pyrimidine-3-carboxamide] | ++ (Compounds with a Cisplatin sensitization value >0.02 μM but <0.2 μM are marked with “++.”) |
| CN(C)CCOCCOc1ccncc1NC(=O)c1c(N)nn2cc(Cl)cnc12 [I-O-47, 2-amino-6-chloro-N-(4-(2-(2-(dimethylamino)ethoxy)ethoxy)pyridin-3-yl)pyrazolo[1,5-a]pyrimidine-3-carboxamide] | + (Compounds with a Cisplatin sensitization value >0.2 μM but <5 μM are marked with “+.”) |
| CN(C)CC1(O)CCN(c2ccncc2NC(=O)c2c(N)nn3cc(Cl)cnc23)CC1 [I-N-36, 2-amino-6-chloro-N-(4-(4-((dimethylamino)methyl)-4-hydroxypiperidin-1-yl)pyridin-3-yl)pyrazolo[1,5-a]pyrimidine-3-carboxamide] | ++ (Compounds with a Cisplatin sensitization value >0.02 μM but <0.2 μM are marked with “++.”) |
| Nc1nn2cc(F)cnc2c1C(=O)Nc1cnccc1N1CCC2(CC1)COC2 [I-N-226, N-(4-(2-oxa-7-azaspiro[3.5]nonan-7-yl)pyridin-3-yl)-2-amino-6-fluoropyrazolo[1,5-a]pyrimidine-3-carboxamide] | +++ (Compounds with a Cisplatin sensitization value of <0.02 μM are marked with “+++.”) |
| Nc1nn2cc(F)cnc2c1C(=O)Nc1cnccc1N1CCN(C2CC2)CC1 [I-N-33, 2-amino-N-(4-(4-cyclopropylpiperazin-1-yl)pyridin-3-yl)-6-fluoropyrazolo[1,5-a]pyrimidine-3-carboxamide] | + (Compounds with a Cisplatin sensitization value >0.2 μM but <5 μM are marked with “+.”) |
| CN1CCN2CCN(c3c(F)cncc3NC(=O)c3c(N)nn4cc(F)cnc34)CC2C1=O (stereo not drawn) [I-N-240, 2-amino-6-fluoro-N-(5-fluoro-4-(8-methyl-9-oxohexahydro-1H-pyrazino[1,2-a]pyrazin-2(6H)-yl)pyridin-3-yl)pyrazolo[1,5-a]pyrimidine-3-carboxamide] | ++ (Compounds with a Cisplatin sensitization value >0.02 μM but <0.2 μM are marked with “++.”) |
| CC(=O)N1CC2(CCN(c3ccncc3NC(=O)c3c(N)nn4cc(F)cnc34)CC2)C1 [I-N-251, N-(4-(2-acetyl-2,7-diazaspiro[3.5]nonan-7-yl)pyridin-3-yl)-2-amino-6-fluoropyrazolo[1,5-a]pyrimidine-3-carboxamide] | +++ (Compounds with a Cisplatin sensitization value of <0.02 μM are marked with “+++.”) |
| CS(=O)(=O)C1CN(C(=O)C2CCN(c3ccncc3NC(=O)c3c(N)nn4cc(F)cnc34)CC2)C1 [I-G-89, 2-amino-6-fluoro-N-(4-(4-(3-(methylsulfonyl)azetidine-1-carbonyl)piperidin-1-yl)pyridin-3-yl)pyrazolo[1,5-a]pyrimidine-3-carboxamide] | + (Compounds with a Cisplatin sensitization value >0.2 μM but <5 μM are marked with “+.”) |
| C[C@@H]1CN(C(=O)C2CCN(c3c(F)cncc3NC(=O)c3c(N)nn4cc(F)cnc34)CC2)CCN1C [I-G-50, (R)-2-amino-N-(4-(4-(3,4-dimethylpiperazine-1-carbonyl)piperidin-1-yl)-5-fluoropyridin-3-yl)-6-fluoropyrazolo[1,5-a]pyrimidine-3-carboxamide] | +++ (Compounds with a Cisplatin sensitization value of <0.02 μM are marked with “+++.”) |
| COCCN1CCN(c2ccncc2NC(=O)c2c(N)nn3cc(Cl)cnc23)CC1 [I-N-60, 2-amino-6-chloro-N-(4-(4-(2-methoxyethyl)piperazin-1-yl)pyridin-3-yl)pyrazolo[1,5-a]pyrimidine-3-carboxamide] | +++ (Compounds with a Cisplatin sensitization value of <0.02 μM are marked with “+++.”) |
| CC(C)N1CCN(c2ccncc2NC(=O)c2c(N)nn3cc(F)cnc23)CC1 [I-N-4, 2-amino-6-fluoro-N-(4-(4-isopropylpiperazin-1-yl)pyridin-3-yl)pyrazolo[1,5-a]pyrimidine-3-carboxamide] | +++ (Compounds with a Cisplatin sensitization value of <0.02 μM are marked with “+++.”) |
| CN1CCN(C(=O)C2CCN(c3c(F)cncc3NC(=O)c3c(N)nn4cc(F)cnc34)CC2)CC1(C)C [I-G-15, 2-amino-6-fluoro-N-(5-fluoro-4-(4-(3,3,4-trimethylpiperazine-1-carbonyl)piperidin-1-yl)pyridin-3-yl)pyrazolo[1,5-a]pyrimidine-3-carboxamide] | +++ (Compounds with a Cisplatin sensitization value of <0.02 μM are marked with “+++.”) |
| CN1CC(C(=O)N2CCN(c3c(F)cncc3NC(=O)c3c(N)nn4cc(F)cnc34)CC2)C1 [I-N-194] | +++ (Compounds with a Cisplatin sensitization value of <0.02 μM are marked with “+++.”) |
